This is an account of results in patent publication US20120316169A1, “2-ARYL-PROPIONAMIDE DERIVATIVES USEFUL AS BRADYKININ RECEPTOR ANTAGONISTS AND PHARMACEUTICAL COMPOSITIONS CONTAINING THEM” (DOMPÉ S.P.A., priority 2009, published 2012).

This assay has as its target T1, BKB1 receptors (Homo sapiens, UniProt P46663).
T1 construct: Human (IMR-90) lung fibroblast cells expressing native B1 receptors; endogenous in cells; host or cells: IMR-90 human lung fibroblasts, interleukin-treated to up-regulate BKB1 receptors
T1 sequence (P46663 1-353): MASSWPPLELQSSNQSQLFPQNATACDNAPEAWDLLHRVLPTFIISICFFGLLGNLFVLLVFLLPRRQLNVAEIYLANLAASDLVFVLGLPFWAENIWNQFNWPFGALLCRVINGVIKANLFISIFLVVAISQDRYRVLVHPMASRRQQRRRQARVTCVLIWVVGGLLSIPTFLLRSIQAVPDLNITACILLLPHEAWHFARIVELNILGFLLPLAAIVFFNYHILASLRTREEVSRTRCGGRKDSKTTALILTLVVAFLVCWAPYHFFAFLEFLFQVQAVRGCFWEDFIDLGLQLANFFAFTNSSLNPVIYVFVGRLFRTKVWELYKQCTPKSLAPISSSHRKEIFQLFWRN
Kind of assay: Calcium mobilization assay (FLIPR), B1 receptors in IMR-90 cells. The format is cell-based. The following applies: Human IMR-90 lung fibroblast cells, up-regulated BKB1 receptors, agonist desArg10-kallidin (DAKD) 2 to 8 nM, calcium-dependent fluorescence. On the procedure:
Calcium mobilization assay (FLIPR)—Human (IMR-90) lung fibroblast cells expressing native B1 receptors were harvested by trypsinization and seeded into black wall/clear bottom 96-well plates (Costar 3904; Corning Life Sciences, Acton, Mass.) at approximately 13,000 cells/well. After 1 day incubation, cells were treated with […] (0.35 ng/ml) in 10% FBS/MEM for 2 h to up-regulate BKB1 receptors. Induced cells were loaded with fluorescent calcium indicator by incubation with 2.3 μM Fluo-4/acetoxymethyl ester (Invitrogen) at 37° C. for 1.5 h in the presence of an anion transport inhibitor (2.5 mM probenecid in 1% FBS/MEM). Extracellular dye was removed by washing with assay buffer (2.5 mM probenecid, 0.1% BSA in 20 mM HEPES/HBSS without bicarbonate or phenol red, pH 7.5) and cell plates were kept in the dark until used. Test compounds were assayed at eight concentrations in triplicate. Addition of test compounds to the cell plate and incubation for 5 min at 35° C., followed by the addition of 2 to 8 nM final BK1 agonist desArg^10-kallidin (DAKD, 3×EC50) was carried out in the fluorimetric imaging plate reader (FLIPR; Molecular Devices) while continuously monitoring calcium-dependent fluorescence.
For orientation: Calcium assays in cells follow changes in intracellular calcium, usually with a dye or a luminescent sensor.

The IC50 is the concentration needed to halve the response being measured. Take `COc1cc(Nc2cccc(C(C)C(=O)NC3CCCCC3N)c2)cc(C(F)(F)F)c1` (centres unmarked) [Compound 59, N-(2-aminocyclohexyl)-2-[3-{[3-methoxy-5-(trifluoromethyl)phenyl]amino}phenyl]propanamide]: the half-inhibitory concentration (IC50) is 6.92 µM.
As for `CC(C(=O)Nc1ccncc1)c1ccc(OS(=O)(=O)C(F)(F)F)cc1` (centres unmarked) [Compound 47, 4-[1-oxo-1-(pyridin-4-ylamino)propan-2-yl]phenyl trifluoromethanesulfonate], the IC50 is 3.24 µM.
In the case of `CC(C(=O)NCC(=O)NC(C)(C)C)c1ccc(Nc2nc(C(F)(F)F)co2)cc1` (centres unmarked) [Compound 30, N-[2-(tert-butylamino)-2-oxoethyl]-2-(4-{[4-(trifluoromethyl)-1,3-oxazol-2-yl]amino}phenyl)propanamide], the IC50 was 7.76 µM.
On to `CC(C(=O)NCC(C)(C)N)c1cccc(Oc2cccc(OC(F)(F)F)c2)c1` (centres unmarked) [Compound 18], for which the IC50 was 2.09 µM.
For `COc1cc(Nc2cccc(C(C)C(=O)Nc3ccncn3)c2)cc(C(F)(F)F)c1` (centres unmarked) [Compound 55, 2-(3-{[3-methoxy-5-(trifluoromethyl)phenyl]amino}phenyl)-N-(pyrimidin-4-yl)propanamide], the IC50 was 5.25 µM.
As for `CC(C(=O)NCCCNC1CCCCC1)c1ccc(Oc2cccc3ccccc23)cc1` (centres unmarked) [Compound 63, N-[3-(cyclohexylamino)propyl]-2-[4-(naphthalen-1-yloxy)phenyl]propanamide], the IC50 is 3.89 µM.
As to `Cc1cc(NC(=O)C(C)c2cccc(Oc3cccc(F)c3)c2)n(C)n1` (centres unmarked) [Compound 11, N-(1,3-dimethyl-1H-pyrazol-5-yl)-2-[3-(3-fluorophenoxy)phenyl]propanamide], the IC50 was 11.2 µM.
`Cc1ccc(OCC(O)CNC(=O)C(C)c2ccc(Nc3nc(C(F)(F)F)co3)cc2)cc1C` (centres unmarked) [Compound 32, N-[2-hydroxy-3-(3,4-dimethylphenoxy)propyl]-2-(4-{[4-(trifluoromethyl)-1,3-oxazol-2-yl]amino}phenyl)propanamide]: the IC50 was 8.32 µM.
Regarding `CC(C(=O)NC1CCCCC1)c1cccc(C(=O)c2ccccc2)c1` (centres unmarked) [Compound 34, N-cyclohexyl-2-[3-(phenylcarbonyl)phenyl]propanamide], the IC50 is 8.51 µM.
Next, `CCNC(=O)C(C)c1cccc(Nc2cc(OC)cc(C(F)(F)F)c2)c1` (centres unmarked) [Compound 56, N-ethyl-2-(3-{[3-methoxy-5-(trifluoromethyl)phenyl]amino}phenyl)propanamide]: 7.76 µM.
Take `CC(C(=O)Nn1cnnc1)c1ccc(NS(=O)(=O)c2ccc(Cl)cc2)cc1` (centres unmarked) [Compound 78, 2-(4-{[(4-chlorophenyl)sulfonyl]amino}phenyl)-N-(4H-1,2,4-triazol-4-yl) propanamide]: the IC50 was 0.891 µM.
Next, `COc1cccc(CN(C)CCNC(=O)C(C)c2ccc(Nc3nc(C(F)(F)F)co3)cc2)c1` (centres unmarked) [Compound 31, N-{2-[(3-methoxybenzyl)(methyl)amino]ethyl}-2-(4-{[4-(trifluoromethyl)-1,3-oxazol-2-yl]amino}phenyl)propanamide]: 7.76 µM; `CC(C(=O)Nc1ccc(Cc2ccncc2)cc1)c1ccc(OS(=O)(=O)C(F)(F)F)cc1` (centres unmarked) [Compound 48, 4-{1-oxo-1-[4-(pyridin-4-ylmethyl)propan-2-yl]amino}phenyl trifluoromethanesulfonate]: 12.6 µM; `CC(C(=O)Nc1cnccn1)c1ccc(N2CCCCC2)cc1` (centres unmarked) [Compound 77, 2-[4-(piperidin-1-yl)phenyl]-N-(pyrazin-2-yl)propanamide]: 4.37 µM.
The value for `COc1cccc(CN(C)CCNC(=O)C(C)c2ccc(NS(=O)(=O)C(C)C)cc2)c1` (centres unmarked) [Compound 22] was 8.13 µM; that for `CC(F)(C(N)=O)c1ccc(OS(=O)(=O)C(F)(F)F)cc1` (centres unmarked) [Compound 1, 4-(1-amino-2-fluoro-1-oxopropan-2-yl)phenyl trifluoromethanesulfonate] was 6.46 µM.
The value for `CC(C(=O)Nc1ccncc1)c1ccc(Nc2cnc3ccccc3c2)cc1` (centres unmarked) [Compound 80, N-(pyridin-4-yl)-2-[4-(quinolin-3-ylamino)phenyl]propanamide] was 5.25 µM; that for `CC(C(N)=O)c1cccc(Nc2ccc3c(c2)OC(F)(F)O3)c1` (centres unmarked) [Compound 76, 2-{3-[(2,2-difluoro-1,3-benzodioxol-5-yl)amino]phenyl}propanamide] was 8.91 µM; that for `COc1cccc(CN(C)CCCNC(=O)C(C)c2ccc(OS(=O)(=O)C(F)(F)F)cc2)c1` (centres unmarked) [Compound 50, 4-(1-{[3-[3-methoxybenzyl(methyl)amino]propyl}amino-1-oxopropan-2-yl)phenyl trifluoromethanesulfonate] was 3.63 µM.
For `CC(C(N)=O)c1ccc(Nc2ccc3c(c2)OC(F)(F)O3)cc1` (centres unmarked) [Compound 79, 2-{4-[(2,2-difluoro-1,3-benzodioxol-5-yl)amino]phenyl}propanamide], the IC50 was 1.35 µM.
As to `CC(C(=O)Nc1ccncn1)c1cccc(Nc2ccc(N3CCOCC3)cc2)c1` (centres unmarked) [Compound 15, 2-(3-{[4-(morpholin-4-yl)phenyl]amino}phenyl)N-(pyrimidin-4-yl)propanamide], the IC50 was 9.12 µM.
Consider `CC(C(=O)Nc1ccncn1)c1ccc(N2CCCCC2)cc1` (centres unmarked) [Compound 69, 2-[4-(piperidin-1-yl)phenyl]-N-(pyrimidin-4-yl)propanamide], for which the IC50 was 14.1 µM.
`CC(C(=O)Nc1cc(Cl)cc(Cl)c1S(N)(=O)=O)c1ccc(OS(=O)(=O)c2ccccc2Cl)cc1` (centres unmarked) [Compound 81, 4-{1-[(3,5-dichloro-2-sulfamoylphenyl)amino]-1-oxopropan-2-yl}phenyl 2-chlorobenzenesulfonate]: the IC50 was 8.71 µM.
Take `CCOCCCNC(=O)C(C)c1cccc(Nc2cc(OC)cc(C(F)(F)F)c2)c1` (centres unmarked) [Compound 52, 2-(3-{[3-methoxy-5-(trifluoromethyl)phenyl]amino}phenyl)-N-(3-ethoxypropyl)propanamide]: the IC50 is 8.91 µM.
`COc1cccc(Nc2ccc(C(C)C(=O)Nc3ccncn3)cc2)c1OC` (centres unmarked) [Compound 26, 2-{4-[(2,3-dimethoxyphenyl)amino]phenyl}-N-(pyrimidin-4-yl)propanamide]: the half-inhibitory concentration (IC50) is 5.75 µM.
For the molecule `CC(C)Cc1ccc(C(C)C(=O)Nc2cc[n+](C)cn2)cc1` (centres unmarked) [Compound 39, 1-methyl-4-({2-[4-(2-methylpropyl)phenyl]propanoyl}amino)pyrimidin-1-ium iodide], the IC50 was 12.6 µM.
Consider `CC(C(=O)NCCC1CCN(c2ccncc2)CC1)c1ccc(Nc2ccccc2-n2cccc2)cc1` (centres unmarked) [Compound 70, N-{2-[1-(pyridin-4-yl)piperidin-4-yl]ethyl}-2-(4-{[2-(1H-pyrrol-1-yl)phenyl]amino}phenyl)propanamide], for which the IC50 was 0.708 µM.
Take `CC(C(=O)Nn1cnnc1)c1ccc(Oc2cccc3ccccc23)cc1` (centres unmarked) [Compound 64, 2-[4-(naphthalen-1-yloxy)phenyl]-N-(4H-1,2,4-triazol-4-yl)propanamide]: the 50% inhibitory concentration (IC50) is 8.91 µM.
The value for `CCn1cc(NC(=O)C(C)c2ccc(C(=O)c3ccccc3)s2)c(C)n1` (centres unmarked) [Compound 8, N-(1-ethyl-3-methyl-1H-pyrazol-4-yl)-2-[5-(phenylcarbonyl)thiophen-2-yl]propanamide] was 2.63 µM; that for `COc1cccc(Nc2ccc(C(C)C(=O)Nc3cc(C)nn3C)cc2)c1OC` (centres unmarked) [Compound 25, 2-{4-[(2,3-dimethoxyphenyl)amino]phenyl}-N-(1,3-dimethyl-1H-pyrazol-5-yl)propanamide] was 3.09 µM; that for `CC(C(=O)NCCNCc1ccccc1)c1ccc(Oc2cccc3ccccc23)cc1` (centres unmarked) [Compound 61, N-[2-(benzylamino)ethyl]-2-[4-(naphthalen-1-yloxy)phenyl]propanamide] was 3.24 µM.
As to `CC(C(=O)Nc1nccs1)c1cccc(C(=O)c2ccccc2)c1` (centres unmarked) [Compound 33, 2-[3-(phenylcarbonyl)phenyl]-N-(1,3-thiazol-2-yl)propanamide], the IC50 was 10.2 µM.
For the molecule `CC(F)(C(=O)Nc1ccccc1S(N)(=O)=O)c1cccc(Nc2nc(C(F)(F)F)cs2)c1` (centres unmarked) [Compound 5, 2-fluoro-N-(2-sulfamoylphenyl)-2-(3-{[4-(trifluoromethyl)-1,3-thiazol-2-yl]amino}phenyl)propanamide], the IC50 is 8.71 µM.
Next, `COc1cc(Nc2cccc(C(C)C(=O)Nn3cccc3)c2)cc(C(F)(F)F)c1` (centres unmarked) [Compound 53, 2-(3-{[3-methoxy-5-(trifluoromethyl)phenyl]amino}phenyl)-N-(1H-pyrrol-1-yl)propanamide]: 14.5 µM; `CC(C(=O)Nc1ccncc1)c1cccc(Nc2ccc(F)cc2)c1` (centres unmarked) [Compound 74, 2-{3-[(4-fluorophenyl)amino]phenyl}-N-(pyridin-4-yl)propanamide]: 1 µM.
